{"source": "patent US11738007B2", "about": "“Treatment of glaucoma using endothelin receptor antagonists” (Perfuse Therapeutics, Inc., priority 2019, dated 2023)", "key": {"ETA receptor": {"target": "T1, ETA receptor (Homo sapiens, UniProt P25101)", "T1 sequence (P25101 21-427)": "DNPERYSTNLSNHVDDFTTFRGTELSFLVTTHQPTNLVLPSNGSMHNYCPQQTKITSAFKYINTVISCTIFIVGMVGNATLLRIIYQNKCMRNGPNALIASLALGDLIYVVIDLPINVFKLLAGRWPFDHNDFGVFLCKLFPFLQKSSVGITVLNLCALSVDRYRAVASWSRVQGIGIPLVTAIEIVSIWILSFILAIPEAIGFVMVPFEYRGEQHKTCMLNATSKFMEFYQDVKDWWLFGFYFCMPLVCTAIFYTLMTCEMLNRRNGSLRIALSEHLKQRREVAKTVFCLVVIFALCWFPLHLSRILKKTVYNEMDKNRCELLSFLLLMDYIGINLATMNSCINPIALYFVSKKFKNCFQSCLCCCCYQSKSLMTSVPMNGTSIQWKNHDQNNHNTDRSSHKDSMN", "test": "Functional potency for ETA receptor", "type": "biochemical", "excerpt": "(§1) In the above table, the physicochemical data, e.g., solubility, were obtained following standard protocols known in the field (see, e.g., Reis et al., Mini Rev Med Chem., 2010, 10(11):1071-6; Avdeef et al., Expert Opin Drug Metab Toxicol., 2005, 1(2):325-42; Bharate et al., Comb Chem High Throughput Screen., 2016, 19(6):461-9; and Jain et al., J Pharm Biomed Anal., 2013, 86:11-35); and the biochemical data, i.e., potency for ETA/ETB, were obtained following the protocols known in the field (see, e.g., Kirkby et al., Br J Pharmacol., 2008, 153(6):1105-19; and Maguire et al., Br J Pharmacol., 2014, 171(24):5555-72)."}, "ETB receptor": {"target": "T2, ETB receptor (Homo sapiens, UniProt P24530)", "T2 sequence (P24530 27-442)": "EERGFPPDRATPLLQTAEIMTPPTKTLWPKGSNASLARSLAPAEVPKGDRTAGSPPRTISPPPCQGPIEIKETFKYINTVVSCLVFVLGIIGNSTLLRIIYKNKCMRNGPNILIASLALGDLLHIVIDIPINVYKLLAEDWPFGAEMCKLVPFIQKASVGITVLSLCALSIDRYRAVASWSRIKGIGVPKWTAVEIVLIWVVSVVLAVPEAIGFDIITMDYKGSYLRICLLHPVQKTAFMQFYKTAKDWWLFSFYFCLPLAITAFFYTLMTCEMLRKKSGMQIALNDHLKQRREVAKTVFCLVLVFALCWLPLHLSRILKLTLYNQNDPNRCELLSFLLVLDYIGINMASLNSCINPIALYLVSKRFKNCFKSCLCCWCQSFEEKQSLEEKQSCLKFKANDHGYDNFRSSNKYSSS", "test": "Functional potency for ETB receptor", "type": "biochemical", "excerpt": "as §1"}, "[1]": {"test": "Pharmacokinetics after topical administration in the rabbit", "type": "in vivo, Dutch-belted rabbits", "conditions": "single topical eye drop 100 μg; 10 minutes, 2 and 7 hours", "experimental": "To determine the pharmacokinetic properties of Edonentan following topical administration in the rabbit, rabbits (Dutch-belted rabbits) received an eye drop in both eyes (100 μg of Edonentan, 35 μL dose volume/eye). After the administrations, the animals (N=2) were euthanized at different time points (e.g. 10 minutes (immediately after pot-dose), 2 and 7 hours) and tissues were collected for analysis. List of tissues collected include plasma, retina, vitreous humor and bulbar conjunctiva."}, "Solubility": {"test": "Solubility", "type": "physicochemical", "excerpt": "as §1"}, "ET-1 induced vasospasm": {"system": "ET-1 induced vasospasm", "test": "Rabbit ET-1 induced vasospasm model, retinal blood flow", "type": "in vivo", "experimental": "Adult, male Dutch-belted rabbits were given a 20 μl intravitreal injection (IVT) of 0.5 μg of ET-1 followed by a 20 μl intravitreal injection of 10-100 μg Edonentan given 30 min after the ET-1 administration. IOP, optical coherence tomography-angiography (OCT-A), and fluorescein angiograms (FA) were performed at pre-specified time points (30, 45, 60, and 75 min) following ET-1 and Edonentan administration to assess retinal blood flow changes induced by ET-1+/−Edonentan. […] To evaluate the effect of retinal blood flow following intravitreally administered endothelin-1 (ET-1) followed by the antagonist Edonentan in the rabbit, rabbits (Oryctolagus cuniculus) were given a 20 μL intravitreal injection of ET-1 in the left eye followed by a 20 μL intravitreal injection of Edonentan at 2 (or 3) different doses (e.g. 0.1 μg, 0.5 μg, 2.5 μg). The pulse ox, tonometry, optical coherence tomography angiography (OCTA), fluorescein angiography (FA) and retinal leakage scoring were performed for evaluation."}, "Stability in solid state": {"test": "Stability in solid state", "type": "physicochemical", "conditions": "2 h @ l25° C.", "excerpt": "as §1"}, "[2]": {"system": "oxygen-induced ischemic retinopathy", "test": "Mouse oxygen-induced ischemic retinopathy (OIR) model", "type": "in vivo, mice", "conditions": "IVT 1 μL of 2 μg/μL, single dose; 24, 48, 96 hours", "experimental": "A relevant mice model was used to obtain the retinal hypoxia area in mice with oxygen-induced ischemic retinopathy (OIR) at different time points, as shown in FIG. 4. […] Briefly, at P17, mice with OIR (n=60) were given an injection of ET-1 antagonist (1 μL of 2 μg/μL Edonentan formulation, single dose) in one eye and PBS in the fellow eye. At 24, 48, and 96 hours after injection, mice (n=10 for each time point) were euthanized and the retinas were dissected and stained with GSA lectin and hypoxyprobe. The area of NV, area of retinal hypoxia, and the area of retinal nonperfusion were determined for each retina."}}, "note": "“And” between values parts separate entries of the source, which are not always exact repeats. Identical values can stand only once. Like-named read-outs stand apart in the source and are kept apart here."}
{"smiles": "Cc1onc(NS(=O)(=O)c2ccccc2-c2ccc(-c3ncco3)cc2CN(C)C(=O)CC(C)(C)C)c1C", "note": "[Edonentan, N-[[2′-[[(4,5-dimethyl-3-isoxazolyl)amino]sulfonyl]-4-(2-oxazolyl)[1,1′-biphenyl]-2-yl]methyl]-N,3,3-trimethylbutanamide]", "values": [{"measurement": "IC50", "setting": "ETA receptor; functional potency", "value": 1.54, "unit": "nM"}, {"measurement": "Functional Potency for ETA and ETB Receptors (rating)", "setting": "ETA receptor; rating in words", "value": "High potency"}, {"measurement": "IC50", "setting": "ETB receptor", "value": 590, "unit": "nM"}, {"measurement": "Detection in plasma, retina, vitreous humor and bulbar conjunctiva", "setting": "[1]", "value": "detected in all tissues examined at all timepoints"}, {"measurement": "solubility", "setting": "Solubility; aqueous buffer, pH 7, amorphous form, read-out: Solubility at pH 7", "value": "326 µg/mL and 607 µM"}, {"measurement": "solubility", "setting": "Solubility; ethyl acetate, organic solvent or mixture, read-out: Solubility in Ethyl Acetate", "value": "> 8900 µg/mL and > 16800 µM"}, {"measurement": "Solubility in Ethyl Acetate (rating)", "setting": "Solubility; ethyl acetate, rating in words", "value": "Good"}, {"measurement": "solubility", "setting": "Solubility; pH 2, simulated gastric fluid, read-out: Solubility at pH 2", "value": "< 0.54 µg/mL and < 1 µM"}, {"measurement": "Fluorescein dye velocity, dose dependence", "setting": "ET-1 induced vasospasm; 0.1 μg ET-1 and 0.1, 0.5, 2.5 or 10 μg Edonentan IVT, FIG. 8A/8B", "value": "dose-response"}, {"measurement": "Effect of ET-1 (retinal vasoconstriction) after antagonist, fluorescein angiography", "setting": "ET-1 induced vasospasm; 0.5 μg ET-1 IVT, 10 μg Edonentan IVT 30 min after ET-1", "value": "reversed"}, {"measurement": "Time to reversal of ET-1 effect", "setting": "ET-1 induced vasospasm; 0.5 μg ET-1 IVT, 10 μg Edonentan IVT, time after ET-1 (60 min after Edonentan)", "value": "≤ 90", "unit": "min"}, {"measurement": "Fluorescein dye velocity as an index of retinal blood flow", "setting": "ET-1 induced vasospasm; 0.5 μg ET-1 and 10 μg antagonist IVT, healthy rabbits, FIG. 3", "value": "improved to control levels"}, {"measurement": "Stability in Solid State (rating)", "setting": "Stability in solid state", "value": "Stable"}, {"measurement": "Retinal hypoxia area", "setting": "[2]", "value": "improvement"}]}
